Test results taken from patent US9499550B2 (BRISTOL-MYERS SQUIBB COMPANY, priority 2012, dated 2016).
Like-named read-outs stand apart in the source and are kept apart here.

Columns and labels:
[1] = tested on: HCV genotype 1b (Con1) replicon in HUH-7 cells; experiment: HCV replicon luciferase reporter assay, genotype 1b; format: cell-based; conditions: Hepatitis C virus, Huh-7, 72 h, 3 days incubation, read-out: LE_1b (EC50, range)
Method in brief: (§1)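 Replicon inhibition for both genotypes was measured as Renilla luciferase signal (EnduRen, 7.5 μM final, 2 h) after 3-day, 37° C exposure of replicon-bearing HUH-7 cells in 4% FCS DMEM, 0.5% DMSO. The 1b construct carries S1179I; the 1a H77 construct carries P1496L and S2204I. Twenty-point, 3-fold dilutions were fitted four-parametrically for EC50, and CC50 was taken from multiplexed Cell Titer-Blue.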

[2] = tested on: HCV genotype 1a (H77 strain) replicon in HUH-7 cells; experiment: HCV replicon luciferase reporter assay, genotype 1a; format: cell-based; conditions: Hepatitis C virus, Huh-7, 72 h, 3 days incubation, read-out: LE_1a (EC50, range)
Method in brief: as §1

[3] = HCV genotype 1b replicon luciferase
[4] = HCV genotype 1a replicon luciferase

Row | Compound | EC50 [1, 3] [nM] | EC50 [2, 4] [nM] | further results
1 | [2H]C([2H])([2H])C(OC(=O)N[C@@H]1C(=O)N2C[C@H](Oc3nccc4cc(OC(C)C)ccc34)C[C@H]2C(=O)N[C@]2(C(=O)NS(=O)(=O)C3(C)CC3)C[C@H]2/C=C\CC[C@@H](C)C[C@H]1C)(C([2H])([2H])[2H])C([2H])([2H])[2H] [Compound 5167, 1,1,1,3,3,3-hexadeutero-2-(trideuteromethyl)propan-2-yl((2R,6S,7R,9R,13aS,14aR,16aS,Z)-2-((6-isopropoxyisoquinolin-1-yl)oxy)-7,9-dimethyl-14a-(((1-methylcyclopropyl)sulfonyl)carbamoyl)-5,16-dioxo-1,2,3,5,6,7,8,9,10,11,13a,14,14a,15,16,16a-hexadecahydrocyclopropa[e]pyrrolo[1,2-a][1,4]diazacyclopentadecin-6-yl)carbamate] | < 5.46 | < 5.46 | 
2 | [2H]C([2H])([2H])C(OC(=O)N[C@@H]1C(=O)N2C[C@H](Oc3nccc4cc(OC(C)C)ccc34)C[C@H]2C(=O)N[C@]2(C(=O)NS(=O)(=O)C3CC3)C[C@H]2/C=C\CC[C@@H](C)C[C@H]1C)(C([2H])([2H])[2H])C([2H])([2H])[2H] [Compound 5155, 1,1,1,3,3,3-hexadeutero-2-(trideuteromethyl)propan-2-yl((2R,6S,7R,9R,13aS,14aR,16aS,Z)-14a-((cyclopropylsulfonyl)carbamoyl)-2-((6-isopropoxyisoquinolin-1-yl)oxy)-7,9-dimethyl-5,16-dioxo-1,2,3,5,6,7,8,9,10,11,13a,14,14a,15,16,16a-hexadecahydrocyclopropa[e]pyrrolo[1,2-a][1,4]diazacyclopentadecin-6-yl)carbamate] | < 5.46 | < 5.46 | 
3 | C[C@@H]1CC/C=C\[C@@H]2C[C@@]2(C(=O)NS(=O)(=O)C2(CF)CC2)NC(=O)[C@@H]2C[C@@H](Oc3cnc4ccccc4n3)CN2C(=O)[C@@H](NC(=O)OC(C)(C)C)[C@H](C)C1 [Compound 4130, tert-butyl (2R,6S,7R,9R,13aS,14aR,16aS,Z)-14a-(1-(fluoromethyl)cyclopropylsulfonylcarbamoyl)-7,9-dimethyl-5,16-dioxo-2-(quinoxalin-2-yloxy)-1,2,3,5,6,7,8,9,10,11,13a,14,14a,15,16,16a-hexadecahydrocyclopropa[e]pyrrolo[1,2-a][1,4]diazacyclopentadecin-6-ylcarbamate] | 4.82 to 103 | 4.82 to 103 | 
4 | CC[C@@H]1C[C@H](C)CC/C=C\[C@@H]2C[C@@]2(C(=O)NS(=O)(=O)C2CC2)NC(=O)[C@@H]2C[C@@H](Oc3nccc4c5c(ccc34)N(C)CCO5)CN2C(=O)[C@H]1NC(=O)OC(C)(C)C [Compound 5308, tert-butyl ((2R,6S,7R,9R,13aS,14aR,16aS,Z)-14a-((cyclopropylsulfonyl)carbamoyl)-7-ethyl-9-methyl-2-((4-methyl-3,4-dihydro-2H-[1,4]oxazino[2,3-f]isoquinolin-7-yl)oxy)-5,16-dioxo-1,2,3,5,6,7,8,9,10,11,13a,14,14a,15,16,16a-hexadecahydrocyclopropa[e]pyrrolo[1,2-a][1,4]diazacyclopentadecin-6-yl)carbamate] | < 5.46 | < 5.46 | 
5 | C[C@@H]1CC/C=C\[C@@H]2C[C@@]2(C(=O)NS(=O)(=O)C2(C)CC2)NC(=O)[C@@H]2C[C@@H](Oc3ncc(OCC4CC4)c4ccccc34)CN2C(=O)[C@@H](NC(=O)OC(C)(C)C(F)(F)F)[C@H](C)C1 [Compound 4158] |  |  | EC50 ([1]; GETYPE1B, HCV genotype 1b replicon luciferase): < 5.46 nM; EC50 ([2]; GETYPE1A, HCV genotype 1a replicon luciferase): < 5.46 nM
6 | CC[C@@H]1C[C@H](C)CC/C=C\[C@@H]2C[C@@]2(C(=O)NS(=O)(=O)C2CC2)NC(=O)[C@@H]2C[C@@H](Oc3ncc(OC)c4ccccc34)CN2C(=O)[C@H]1NC(=O)OC(C)(C)C(F)F [Compound 5537, 1,1-difluoro-2-methylpropan-2-yl((2R,6S,7R,9R,13aS,14aR,16aS,Z)-14a-((cyclopropylsulfonyl)carbamoyl)-7-ethyl-2-((4-methoxyisoquinolin-1-yl)oxy)-9-methyl-5,16-dioxo-1,2,3,5,6,7,8,9,10,11,13a,14,14a,15,16,16a-hexadecahydrocyclopropa[e]pyrrolo[1,2-a][1,4]diazacyclopentadecin-6-yl)carbamate] | 0.1 to 0.5 | 0.51 to 1 | 
7 | CC[C@@H]1C[C@H](C)CC/C=C\[C@@H]2C[C@@]2(C(=O)NS(=O)(=O)C2CC2)NC(=O)[C@@H]2C[C@@H](Oc3cnnc4cc(OC)ccc34)CN2C(=O)[C@H]1NC(=O)OC(C)(C)C [Compound 4340, tert-butyl ((2R,6S,7R,9R,13aS,14aR,16aS,Z)-14a-((cyclopropylsulfonyl)carbamoyl)-7-ethyl-2-((7-methoxycinnolin-4-yl)oxy)-9-methyl-5,16-dioxo-1,2,3,5,6,7,8,9,10,11,13a,14,14a,15,16,16a-hexadecahydrocyclopropa[e]pyrrolo[1,2-a][1,4]diazacyclopentadecin-6-yl)carbamate] | 5.01 to 35 | 5.01 to 35 | 
8 | COc1nnc(O[C@@H]2C[C@H]3C(=O)N[C@]4(C(=O)NS(=O)(=O)C5(C)CC5)C[C@H]4/C=C\CC[C@H](C)C[C@@H](C)[C@H](NC(=O)O[C@@H]4C[C@@H]5C[C@@H]5C4)C(=O)N3C2)c2ccccc12 [Compound 5013, (1R,3r,5S)-bicyclo[3.1.0]hexan-3-yl((2R,6S,7R,9S,13aS,14aR,16aS,Z)-2-((4-methoxyphthalazin-1-yl)oxy)-7,9-dimethyl-14a-(((1-methylcyclopropyl)sulfonyl)carbamoyl)-5,16-dioxo-1,2,3,5,6,7,8,9,10,11,13a,14,14a,15,16,16a-hexadecahydrocyclopropa[e]pyrrolo[1,2-a][1,4]diazacyclopentadecin-6-yl)carbamate] | < 5.46 | < 5.46 | 
9 | COc1ccc2nc(O[C@@H]3C[C@H]4C(=O)N[C@]5(C(=O)NS(=O)(=O)C6(CF)CC6)C[C@H]5/C=C\CC[C@@H](C)C[C@@H](C)[C@H](NC(=O)OC(C)(C)C)C(=O)N4C3)c(C)nc2c1 [Compound 4221, tert-butyl (2R,6S,7R,9R,13aS,14aR,16aS,Z)-14a-(1-(fluoromethyl)cyclopropylsulfonylcarbamoyl)-2-(6-methoxy-3-methylquinoxalin-2-yloxy)-7,9-dimethyl-5,16-dioxo-1,2,3,5,6,7,8,9,10,11,13a,14,14a,15,16,16a-hexadecahydrocyclopropa[e]pyrrolo[1,2-a][1,4]diazacyclopentadecin-6-ylcarbamate] | < 5.46 | < 5.46 | 
10 | COc1ccc2c(O[C@@H]3C[C@H]4C(=O)N[C@]5(C(=O)NS(=O)(=O)C6CC6)C[C@H]5/C=C\CC[C@@H](C)C[C@@H](C)[C@H](NC(=O)OC5C[C@@H]6C[C@@H]6C5)C(=O)N4C3)nc(-c3ccc(OC(C)C)nc3)cc2c1 (stereo partly drawn) [Compound 5219, (1R,3r,5S)-bicyclo[3.1.0]hexan-3-yl((2R,6S,7R,9R,13aS,14aR,16aS,Z)-14a-((cyclopropylsulfonyl)carbamoyl)-2-((3-(6-isopropoxypyridin-3-yl)-6-methoxyisoquinolin-1-yl)oxy)-7,9-dimethyl-5,16-dioxo-1,2,3,5,6,7,8,9,10,11,13a,14,14a,15,16,16a-hexadecahydrocyclopropa[e]pyrrolo[1,2-a][1,4]diazacyclopentadecin-6-yl)carbamate] | < 5.46 | < 5.46 | 
11 | COc1ccc2c(O[C@@H]3C[C@H]4C(=O)N[C@]5(C(=O)NS(=O)(=O)C6CC6)C[C@H]5/C=C\CC[C@H](C)C[C@@H](C)[C@H](NC(=O)NC(C)(C)C)C(=O)N4C3)nc(-c3ccc(OC(C)C)cn3)cc2c1 [Compound 5210, (2R,6S,7R,9S,13aS,14aR,16aS,Z)-6-(3-(tert-butyl)ureido)-N-(cyclopropylsulfonyl)-2-((3-(5-isopropoxypyridin-2-yl)-6-methoxyisoquinolin-1-yl)oxy)-7,9-dimethyl-5,16-dioxo-1,2,3,5,6,7,8,9,10,11,13a,14,14a,15,16,16a-hexadecahydrocyclopropa[e]pyrrolo[1,2-a][1,4]diazacyclopentadecine-14a-carboxamide] | < 5.46 | < 5.46 | 
12 | CC(C)Oc1ccc2c(O[C@@H]3C[C@H]4C(=O)N[C@]5(C(=O)NS(=O)(=O)C6CC6)C[C@H]5/C=C\CC[C@@H](C)C[C@@H](C)[C@H](NC(=O)OC(C)(C)C(F)(F)F)C(=O)N4C3)nccc2c1 [Compound 5148, 1,1,1-trifluoro-2-methylpropan-2-yl((2R,6S,7R,9R,13aS,14aR,16aS,Z)-14a-((cyclopropylsulfonyl)carbamoyl)-2-((6-isopropoxyisoquinolin-1-yl)oxy)-7,9-dimethyl-5,16-dioxo-1,2,3,5,6,7,8,9,10,11,13a,14,14a,15,16,16a-hexadecahydrocyclopropa[e]pyrrolo[1,2-a][1,4]diazacyclopentadecin-6-yl)carbamate] | < 5.46 | < 5.46 | 
13 | CCCOc1cc2c(Cl)cccc2c(O[C@@H]2C[C@H]3C(=O)N[C@]4(C(=O)NS(=O)(=O)C5CC5)C[C@H]4/C=C\CC[C@H](C)C[C@@H](C)[C@H](NC(=O)O[C@H](C)C(F)(F)F)C(=O)N3C2)n1 [Compound 1081, (R)-1,1,1-trifluoropropan-2-yl ((2R,6S,7R,9S,13aS,14aR,16aS,Z)-2-((5-chloro-3-propoxyisoquinolin-1-yl)oxy)-14a-((cyclopropylsulfonyl)carbamoyl)-7,9-dimethyl-5,16-dioxo-1,2,3,5,6,7,8,9,10,11,13a,14,14a,15,16,16a-hexadecahydrocyclopropa[e]pyrrolo[1,2-a][1,4]diazacyclopentadecin-6-yl)carbamate] |  |  | EC50 ([1]; HCV genotype 1b replicon luciferase assay, range class): < 5.46 nM; EC50 ([2]; HCV genotype 1a replicon luciferase assay, range class): 4.82 to 103 nM
